In US12415794B2 (Edgewise Therapeutics, Inc., priority 2018, dated 2025):

Legend:
[1] = biological target: T1, cardiac myofibrils (myosin ATPase); test: Cardiac Myofibril ATPase Assay (counter screen); assay type: biochemical; conditions: myofibrils 1.0 mg/mL, KCl omitted
T1 construct: frozen myofibril pellets obtained from cardiac tissue; from tissue
In short: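 Frozen cardiac myofibrils at 1.0 mg/mL final, KCl omitted, in a PK-LDH coupled ATPase assay; ADP production tracked as NADH loss by absorbance at 340 nm. Inhibition taken as reduced rate relative to vehicle controls, with IC50 derived.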

[2] = biological target: skeletal myofibrils (myosin ATPase); test: Skeletal Myofibril ATPase Assay; assay type: biochemical
In short: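 Skeletal myofibril ATPase measured by PK-LDH coupled NADH depletion, absorbance 340 nm read every 1.5-2 min over 45 min. Max−min rate normalized to 1% DMSO vehicle as 100%; IC50 from four-parameter logistic fit with bottom ≥0. Cardiac myofibrils used as counter-screen.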

T1 sequence (P12883 whole entry): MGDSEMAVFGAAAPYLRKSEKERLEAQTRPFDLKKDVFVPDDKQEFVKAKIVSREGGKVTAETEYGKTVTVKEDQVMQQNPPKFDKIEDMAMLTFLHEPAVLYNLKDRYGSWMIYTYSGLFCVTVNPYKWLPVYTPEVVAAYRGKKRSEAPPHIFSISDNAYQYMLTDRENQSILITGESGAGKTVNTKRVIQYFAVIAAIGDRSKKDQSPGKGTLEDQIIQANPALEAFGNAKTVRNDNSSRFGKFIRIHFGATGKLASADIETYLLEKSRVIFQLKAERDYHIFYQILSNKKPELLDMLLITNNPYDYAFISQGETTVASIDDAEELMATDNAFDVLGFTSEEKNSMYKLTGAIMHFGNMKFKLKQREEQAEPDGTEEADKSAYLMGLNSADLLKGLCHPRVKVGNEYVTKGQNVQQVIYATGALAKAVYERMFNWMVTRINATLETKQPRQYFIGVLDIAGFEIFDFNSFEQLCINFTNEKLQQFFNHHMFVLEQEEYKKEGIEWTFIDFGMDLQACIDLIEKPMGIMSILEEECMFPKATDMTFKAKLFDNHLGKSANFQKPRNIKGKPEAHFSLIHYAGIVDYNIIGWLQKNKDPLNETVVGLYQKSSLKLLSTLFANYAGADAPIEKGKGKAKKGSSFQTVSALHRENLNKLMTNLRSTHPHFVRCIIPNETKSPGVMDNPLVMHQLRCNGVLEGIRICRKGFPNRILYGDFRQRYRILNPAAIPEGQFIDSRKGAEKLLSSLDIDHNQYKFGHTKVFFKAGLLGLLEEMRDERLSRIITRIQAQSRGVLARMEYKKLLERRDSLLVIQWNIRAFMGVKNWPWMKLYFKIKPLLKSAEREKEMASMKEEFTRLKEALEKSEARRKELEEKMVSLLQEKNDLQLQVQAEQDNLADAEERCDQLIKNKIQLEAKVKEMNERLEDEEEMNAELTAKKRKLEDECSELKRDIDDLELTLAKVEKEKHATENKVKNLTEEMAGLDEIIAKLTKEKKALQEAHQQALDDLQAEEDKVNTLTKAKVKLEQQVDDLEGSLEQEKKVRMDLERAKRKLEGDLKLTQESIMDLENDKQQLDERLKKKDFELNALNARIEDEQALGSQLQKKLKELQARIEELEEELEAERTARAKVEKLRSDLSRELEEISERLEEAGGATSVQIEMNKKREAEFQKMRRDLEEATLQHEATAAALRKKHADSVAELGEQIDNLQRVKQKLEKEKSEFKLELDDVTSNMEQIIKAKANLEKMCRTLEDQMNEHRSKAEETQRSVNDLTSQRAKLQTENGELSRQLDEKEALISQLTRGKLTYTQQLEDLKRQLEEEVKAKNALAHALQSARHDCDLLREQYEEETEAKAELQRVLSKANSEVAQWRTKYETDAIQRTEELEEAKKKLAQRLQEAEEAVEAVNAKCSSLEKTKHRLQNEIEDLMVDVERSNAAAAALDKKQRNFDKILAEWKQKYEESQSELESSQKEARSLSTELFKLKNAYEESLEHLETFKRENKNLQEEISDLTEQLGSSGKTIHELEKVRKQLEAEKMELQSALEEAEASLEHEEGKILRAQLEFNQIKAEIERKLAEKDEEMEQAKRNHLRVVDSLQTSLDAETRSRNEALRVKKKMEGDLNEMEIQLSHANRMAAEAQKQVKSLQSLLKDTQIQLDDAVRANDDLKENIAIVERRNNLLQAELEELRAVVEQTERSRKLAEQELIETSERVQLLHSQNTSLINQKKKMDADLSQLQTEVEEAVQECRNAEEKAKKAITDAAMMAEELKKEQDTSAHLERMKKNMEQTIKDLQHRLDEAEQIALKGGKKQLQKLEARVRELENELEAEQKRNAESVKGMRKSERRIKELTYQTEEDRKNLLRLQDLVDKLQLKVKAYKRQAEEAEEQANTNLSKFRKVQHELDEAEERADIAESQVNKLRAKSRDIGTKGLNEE
T1 sequence (P08590 whole entry partner): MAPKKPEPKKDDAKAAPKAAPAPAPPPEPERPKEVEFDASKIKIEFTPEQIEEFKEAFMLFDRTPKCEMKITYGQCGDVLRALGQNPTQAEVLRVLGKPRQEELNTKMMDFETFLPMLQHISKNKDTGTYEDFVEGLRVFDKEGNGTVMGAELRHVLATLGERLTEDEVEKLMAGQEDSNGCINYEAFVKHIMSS
T1 sequence (P10916 whole entry partner): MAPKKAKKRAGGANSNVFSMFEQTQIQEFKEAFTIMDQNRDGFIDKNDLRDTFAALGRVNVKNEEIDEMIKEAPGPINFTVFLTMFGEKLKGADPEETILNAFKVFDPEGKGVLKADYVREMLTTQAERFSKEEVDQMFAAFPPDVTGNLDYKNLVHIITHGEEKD

SMILES	IC50 ([1]; Table 5A)	IC50 ([2]; Table 4A)	IC50 ([1]; Table 5C)	IC50 ([2]; Table 4C)	further results
CCNC(=O)Cn1nc(-c2ccc(N3CC(F)(F)C3)nc2)ccc1=O [Compound I-6, 2-(3-(6-(3,3-difluoroazetidin-1-yl)pyridin-3-yl)-6-oxopyridazin-1(6H)-yl)-N-ethylacetamide]	> 100 µM	10 to 100 µM			
COc1ccc(-c2ccc(=O)n(CC(=O)NC3CCCC3)n2)cc1 [IIIb-23, N-cyclopentyl-2-(3-(4-methoxyphenyl)-6-oxopyridazin-1(6H)-yl)acetamide]			> 100 µM	10 to 100 µM	
COc1ccc(-c2ccc(=O)n(CC(=O)NC3CCCCC3)n2)cc1 [IIIb-41, N-cyclohexyl-2-(3-(4-methoxyphenyl)-6-oxopyridazin-1(6H)-yl)acetamide]			> 100 µM	> 100 µM	
CC(C)OCCCNC(=O)Cn1nc(-c2ccc(Cl)cc2)ccc1=O [IIIc-33, 2-(3-(4-chlorophenyl)-6-oxopyridazin-1(6H)-yl)-N-(3-isopropoxypropyl)acetamide]			> 100 µM	10 to 100 µM	
CCNC(=O)Cn1nc(-c2ccc(N3CC(OC(F)F)C3)nc2)ccc1=O [Compound I-55, 2-(3-(6-(3-(difluoromethoxy)azetidin-1-yl)pyridin-3-yl)-6-oxopyridazin-1(6H)-yl)-N-ethylacetamide]	> 100 µM	10 to 100 µM			
COc1ccc(-c2ccc(=O)n(CC(=O)Nc3ccc4c(c3)OCO4)n2)c(F)c1 [IIIb-33, N-(benzo[d][1,3]dioxol-5-yl)-2-(3-(2-fluoro-4-methoxyphenyl)-6-oxopyridazin-1(6H)-yl)acetamide]			> 100 µM	10 to 100 µM	
CCNC(=O)Cn1nc(-c2ccc(OCC(F)(F)F)cc2)ccc1=O [II-6, N-ethyl-2-(6-oxo-3-(4-(2,2,2-trifluoroethoxy)phenyl)pyridazin-1(6H)-yl)acetamide]					IC50 ([1]; Table 5B): > 100 µM; IC50 ([2]; Table 4B): < 10 µM
CCNC(=O)Cn1nc(-c2ccc(OCCN(C)C)nc2)ccc1=O [Compound I-26, 2-(3-(6-(2-(dimethylamino)ethoxy)pyridin-3-yl)-6-oxopyridazin-1(6H)-yl)-N-ethylacetamide]	> 100 µM	> 100 µM			
CC1(NC(=O)Cn2nc(-c3ccc(OC(F)F)nc3)ccc2=O)CCC1 [Compound I-15, 2-(3-(6-(difluoromethoxy)pyridin-3-yl)-6-oxopyridazin-1(6H)-yl)-N-(1-methylcyclobutyl)acetamide]	> 100 µM	10 to 100 µM			
CCNC(=O)Cn1nc(-c2ccc(OCCCN(C)C)nc2)ccc1=O [Compound I-28, 2-(3-(6-(3-(dimethylamino)propoxy)pyridin-3-yl)-6-oxopyridazin-1(6H)-yl)-N-ethylacetamide]	> 100 µM	> 100 µM			
O=C(Cn1nc(-c2ccc(NC3CCC3)nc2)ccc1=O)NC1CCC1 [Compound I-52, N-cyclobutyl-2-(3-(6-(cyclobutylamino)pyridin-3-yl)-6-oxopyridazin-1(6H)-yl)acetamide]	> 100 µM	< 10 µM			
CCNC(=O)Cn1nc(-c2ccc(NC3COC3)nc2)ccc1=O [Compound I-44, N-ethyl-2-(3-(6-(oxetan-3-ylamino)pyridin-3-yl)-6-oxopyridazin-1(6H)-yl)acetamide]	> 100 µM	< 10 µM			
O=C(Cn1nc(-c2cnc(NC34CC(C3)C4)nc2)ccc1=O)NC1CCC1 [Compound I-50, 2-(3-(2-(bicyclo[1.1.1]pentan-1-ylamino)pyrimidin-5-yl)-6-oxopyridazin-1(6H)-yl)-N-cyclobutyl-acetamide]	> 100 µM	< 10 µM			
CC(C)(C)NC(=O)Cn1nc(-c2ccc(OC(F)F)cc2)ccc1=O [II-16, N-(tert-butyl)-2-(3-(4-(difluoromethoxy)phenyl)-6-oxopyridazin-1(6H)-yl)acetamide]					IC50 ([1]; Table 5B): > 100 µM; IC50 ([2]; Table 4B): 10 to 100 µM
CC(C)c1cccc(NC(=O)Cn2nc(-c3ccc4c(c3)OCCCO4)ccc2=O)c1 [IIIb-5, 2-(3-(3,4-dihydro-2H-benzo[b][1,4]dioxepin-7-yl)-6-oxopyridazin-1(6H)-yl)-N-(3-isopropylphenyl) acetamide]			10 to 100 µM	< 10 µM	
O=C(Cn1nc(-c2ccc(OC(F)F)nc2)ccc1=O)N[C@H]1CC12CC2 [Compound I-17, (S)-2-(3-(6-(difluoromethoxy)pyridin-3-yl)-6-oxopyridazin-1(6H)-yl)-N-(spiro[2.2]pentan-1-yl)acetamide]	> 100 µM	10 to 100 µM			
CCNC(=O)Cn1nc(-c2ccc(OCC3(F)COC3)nc2)ccc1=O [Compound I-23, N-ethyl-2-(3-(6-((3-fluorooxetan-3-yl)methoxy)pyridin-3-yl)-6-oxopyridazin-1(6H)-yl)acetamide]	> 100 µM	10 to 100 µM			

Further lines, with some results ahead:

IC50 ([1]; Table 5A)	IC50 ([2]; Table 4A)	IC50 ([1]; Table 5C)	IC50 ([2]; Table 4C)	SMILES	further results
		> 100 µM	10 to 100 µM	CN(Cc1ccccc1)C(=O)Cn1nc(-c2ccc(Cl)cc2)ccc1=O [IIIc-32, N-benzyl-2-(3-(4-chlorophenyl)-6-oxopyridazin-1(6H)-yl)-N-methylacetamide]	
		> 100 µM	> 100 µM	O=C(Cn1nc(-c2ccccc2)ccc1=O)Nc1ccc2c(c1)OCCO2 [IIIc-64, N-(2,3-dihydrobenzo[b][1,4]dioxin-6-yl)-2-(6-oxo-3-phenylpyridazin-1(6H)-yl)acetamide]	
		> 100 µM	10 to 100 µM	COc1ccc(-c2ccc(=O)n(CC(=O)NCc3ccccc3OC)n2)cc1 [IIIb-21, N-(2-methoxybenzyl)-2-(3-(4-methoxyphenyl)-6-oxopyridazin-1(6H)-yl)acetamide]	
		> 100 µM	< 10 µM	COc1ccccc1NC(=O)Cn1nc(-c2ccc(Cl)cc2)ccc1=O [IIIc-23, 2-(3-(4-chlorophenyl)-6-oxopyridazin-1(6H)-yl)-N-(2-methoxyphenyl)acetamide]	
		> 100 µM	> 100 µM	COc1ccc(-c2ccc(=O)n(CC(=O)NCc3ccccc3)n2)c(F)c1 [IIIb-54, N-benzyl-2-(3-(2-fluoro-4-methoxyphenyl)-6-oxopyridazin-1(6H)-yl)acetamide]	
		> 100 µM	10 to 100 µM	CC(C)CNC(=O)Cn1nc(-c2ccc(Cl)cc2)ccc1=O [IIIc-35, 2-(3-(4-chlorophenyl)-6-oxopyridazin-1(6H)-yl)-N-isobutylacetamide]	
		> 100 µM	< 10 µM	COc1ccc(-c2ccc(=O)n(CC(=O)Nc3ccc4c(c3)OCCO4)n2)cc1 [IIIb-16, N-(2,3-dihydrobenzo[b][1,4]dioxin-6-yl)-2-(3-(4-methoxyphenyl)-6-oxopyridazin-1(6H)-yl)acetamide]	
		> 100 µM	< 10 µM	COc1ccc(-c2ccc(=O)n(CC(=O)NCc3ccc(C)cc3)n2)cc1 [IIIa-15, 2-(3-(4-methoxyphenyl)-6-oxopyridazin-1(6H)-yl)-N-(4-methylbenzyl) acetamide]	
		> 100 µM	< 10 µM	COc1ccc(-c2ccc(=O)n(CC(=O)NCc3cc(Cl)ccc3Cl)n2)cc1	
		> 100 µM	> 100 µM	O=C(Cn1nc(-c2ccccc2)ccc1=O)Nc1ccccc1F [IIIc-66, N-(2-fluorophenyl)-2-(6-oxo-3-phenylpyridazin-1(6H)-yl)acetamide]	
		> 100 µM	10 to 100 µM	COc1ccc(CNC(=O)Cn2nc(-c3ccc(OC)cc3)ccc2=O)cc1 [IIIb-34, N-(4-methoxybenzyl)-2-(3-(4-methoxyphenyl)-6-oxopyridazin-1(6H)-yl)acetamide]	
> 100 µM	< 10 µM			O=C(Cn1nc(-c2ccc(OC(F)F)nc2)ccc1=O)NCc1ccccc1Cl [Compound I-69, N-(2-chlorobenzyl)-2-(3-(6-(difluoromethoxy)pyridin-3-yl)-6-oxopyridazin-1(6H)-yl)acetamide]	
		> 100 µM	> 100 µM	COc1ccc(-c2ccc(=O)n(CC(=O)NCc3ccc(F)cc3)n2)c(F)c1 [IIIb-46, 2-(3-(2-fluoro-4-methoxyphenyl)-6-oxopyridazin-1(6H)-yl)-N-(4-fluorobenzyl)acetamide]	
		> 100 µM	< 10 µM	O=C(Cn1nc(-c2ccc(Cl)cc2)ccc1=O)Nc1cccc2[nH]ccc12 [IIIc-19, 2-(3-(4-chlorophenyl)-6-oxopyridazin-1(6H)-yl)-N-(1H-indol-4-yl)acetamide]	
		> 100 µM	10 to 100 µM	COc1ccc(-c2ccc(=O)n(CC(=O)NCc3ccccc3)n2)cc1 [IIIb-20, N-benzyl-2-(3-(4-methoxyphenyl)-6-oxopyridazin-1(6H)-yl)acetamide]	
> 100 µM	< 10 µM			O=C(Cn1nc(-c2ccc(OC(F)F)nc2)ccc1=O)NC1(c2ccccc2)CCC1 [Compound I-68, 2-(3-(6-(difluoromethoxy)pyridin-3-yl)-6-oxopyridazin-1(6H)-yl)-N-(1-phenylcyclobutyl)acetamide]	
> 100 µM	10 to 100 µM			O=C(Cn1nc(-c2ccc(OC(F)F)nc2)ccc1=O)NCc1cccc(Cl)c1 [Compound I-76, N-(3-chlorobenzyl)-2-(3-(6-(difluoromethoxy)pyridin-3-yl)-6-oxopyridazin-1(6H)-yl)acetamide]	
		> 100 µM	< 10 µM	COc1ccc(-c2ccc(=O)n(CC(=O)NCc3ccccc3C)n2)cc1 [IIIa-16, 2-(3-(4-methoxyphenyl)-6-oxopyridazin-1(6H)-yl)-N-(2-methylbenzyl) acetamide]	
		> 100 µM	> 100 µM	COc1ccc(-c2ccc(=O)n(CC(=O)Nc3cccc(Cl)c3)n2)cc1 [IIIb-52, N-(3-chlorophenyl)-2-(3-(4-methoxyphenyl)-6-oxopyridazin-1(6H)-yl)acetamide]	
		> 100 µM	> 100 µM	CCc1ccc(-c2ccc(=O)n(CC(=O)Nc3ccc4c(c3)OCCO4)n2)cc1 [IIIb-44, N-(2,3-dihydrobenzo[b][1,4]dioxin-6-yl)-2-(3-(4-ethylphenyl)-6-oxopyridazin-1(6H)-yl)acetamide]	
